Experiment [1] deals with osteoclast differentiation. Kind of experiment: Osteoclast differentiation in co-culture of mouse bone marrow cells and calvarial osteoblasts, TRAP staining (Examples 1-7). It is filed as cell-based. To be noted: day 7.
Experiment [2] relates to osteoclast differentiation. Kind of experiment: Osteoclast differentiation in co-culture of mouse bone marrow cells and ST2 cells, TRAP staining (Examples 8-9). The settings on record: for % number of osteoclast (vs. solvent control group): day 7; for activity at 0.1 µM: Mus musculus, Osteoclast, 168 h, day 7, read-out: % number of osteoclast (vs. solvent control group). It counts as cell-based. In outline:
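Bone marrow cells from 6-8-week male ddY mice were co-cultured with ST2 stromal cells under 10^−8 M vitamin D3 and 10^−8 M dexamethasone, with compounds at 0.1 μM final (0.1% DMSO control), refreshed on days 3 and 5. On day 7, TRAP-positive osteoclasts with ≥6 nuclei were counted and expressed as % of solvent control (n=4).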

[3] abbreviates: Mus musculus, Osteoclast, 168 h, individual treatment of Compound (0.1 μM), read-out: % number of osteoclast (vs. solvent control group).
[4] abbreviates: combination treatment of alendronic acid (0.2 μM) with compound (0.1 μM).
[5] abbreviates: combination treatment of clodronic acid (1 μM) with compound (0.1 μM).
[6] abbreviates: combination treatment of etidronic acid (2 μM) with compound (0.1 μM).
[7] abbreviates: combination treatment of ibandronic acid (0.1 μM) with compound (0.1 μM).
Where [8] appears, read: combination treatment of pamidronic acid (0.1 μM) with compound (0.1 μM).
The mark [9] stands for this setting: combination treatment of risedronic acid (0.1 μM) with compound (0.1 μM).
[10] abbreviates: combination treatment of zoledronic acid (0.01 μM) with compound (0.1 μM).
Where [11] appears, read: individual treatment of Compound (0.1 μM).
[12] abbreviates: Combination treatment (alendronic acid + compounds), 0.1 μM each.
The mark [13] stands for this setting: Combination treatment (risedronic acid + compounds), 0.1 μM each.
Where [14] appears, read: Individual treatment (compounds), 0.1 μM.
The mark [15] stands for this setting: singly treated with 0.1 μM risedronic acid.
Where [16] appears, read: singly treated with 0.1 μM alendronic acid.

Where “and” joins values, the source holds several entries; their conditions need not be identical. Identical values can stand only once. Marks after values point to notes of the source that are not given here.

Turning to `CN(CCN1CCOCC1)c1nc(-c2ccc(OCCCCCOc3ccc(C(=N)NO)cc3)cc2)cs1` [Compound 119, N-hydroxy-4-[5-(4-{2-[methyl-(2-morpholinoethyl)amino]-1,3-thiazol-4-yl}phenoxy)pentyloxy]-benzamidine], the values for the activity at 0.1 µM in experiment [1] (setting [3]) and in experiment [2] (setting [14]) were 66% and 78 ± 9%, respectively. Moreover, the “% number of osteoclast (vs. solvent control group)” value (from here on “% number of osteoclast”) in experiment [1] (setting [4]) was 29% and 29 ± 5.3*^#@ %; in experiment [1] (setting [5]), 47% and 47 ± 13.0*^#@ %; in experiment [1] (setting [6]) it was 38% and 38 ± 8.2*^#@ %; in experiment [1] (setting [7]), 36 ± 9.8*^#@ %; in experiment [1] (setting [8]), 37% and 37 ± 5.0*^#@ %; in experiment [1] (setting [9]) it was 38% and 38 ± 6.8*^#@ %. Moreover, the “% number of osteoclast” value is reported as 42 ± 8.1*^#@ % in experiment [1] (setting [10]), 66 ± 8.3 % in experiment [1] (setting [11]), 29 ± 4.9^ab % in experiment [2] (setting [12]) and 29 ± 8.7^ac % in experiment [2] (setting [13]).

Take `O=P(O)(O)C(Cl)(Cl)P(=O)(O)O` [clodronic acid, reference compound]: in experiment [1] (Mus musculus, Osteoclast, 168 h, individual treatment of clodronic acid (1 μM), read-out: % number of osteoclast (vs. solvent control group)), the activity at 1 µM was 88%. Moreover, in experiment [1] (individual treatment of clodronic acid (1 μM)), the “% number of osteoclast” value is on record as 88 ± 9.7 %.

With `NCCC(O)(P(=O)(O)O)P(=O)(O)O` [pamidronic acid, reference compound], in experiment [1] (Mus musculus, Osteoclast, 168 h, individual treatment of pamidronic acid (0.1 μM), read-out: % number of osteoclast (vs. solvent control group)), the activity at 0.1 µM was found to be 82%. For the same compound, in experiment [1] (individual treatment of pamidronic acid (0.1 μM)), the “% number of osteoclast” value is listed as 82 ± 6.7 %.

For the compound `CCCN(CCC)c1nc(-c2ccc(OCCCCCOc3ccc(C(=N)NO)cc3)cc2)c(CC)s1` [Compound 138, N-hydroxy-4-{5-[4-(2-dipropylamino-5-ethyl-1,3-thiazol-4-yl)phenoxy]pentyloxy}-benzamidine], the activity at 0.1 µM stood at 71% in experiment [1] (setting [3]) and 57 ± 7.2% in experiment [2] (setting [14]). For the same compound, the “% number of osteoclast” value is 32% and 32 ± 8.9*^#@ % in experiment [1] (setting [4]); 54 ± 11.9*^#@ % in experiment [1] (setting [5]); 40% and 40 ± 8.4*^#@ % in experiment [1] (setting [6]); 45 ± 7.6*^#@ % in experiment [1] (setting [7]); 42% and 42 ± 6.2*^#@ % in experiment [1] (setting [8]); 35% and 35 ± 8.2*^#@ % in experiment [1] (setting [9]). For the same compound, the “% number of osteoclast” value in experiment [1] (setting [10]) was 48 ± 8.9*^#@ %; in experiment [1] (setting [11]), 71 ± 6.5 %; in experiment [2] (setting [12]) it was 18 ± 6.8^ab %; in experiment [2] (setting [13]), 31 ± 3.2^ac %.

Consider `CC(O)(P(=O)(O)O)P(=O)(O)O` [etidronic acid, reference compound], for which the activity at 2 µM in experiment [1] (Mus musculus, Osteoclast, 168 h, individual treatment of etidronic acid (2 μM), read-out: % number of osteoclast (vs. solvent control group)) was 86%. The “% number of osteoclast” value in experiment [1] (individual treatment of etidronic acid (2 μM)) was determined as 86 ± 6.9 %.

On to `O=P(O)(O)C(O)(Cc1cccnc1)P(=O)(O)O` [risedronic acid, reference compound], for which the activity at 0.1 µM was approximately 82% in experiment [1] (Mus musculus, Osteoclast, 168 h, individual treatment of risedronic acid (0.1 μM), read-out: % number of osteoclast (vs. solvent control group)) and 69% in experiment [2] (setting [15]). For the same compound, the “% number of osteoclast” value in experiment [1] (individual treatment of risedronic acid (0.1 μM)) is given as 82 ± 5.2 %; in experiment [2] (setting [15]) it was 69 ± 6.7 %.

`CC(C)c1sc(N2CCOCC2)nc1-c1ccc(OCCCCCOc2ccc(C(=N)NO)cc2)cc1` [Compound 169, N-hydroxy-4-{5-[4-(5-isopropyl-2-morpholino-1,3-thiazol-4-yl)phenoxy]pentyloxy}-benzamidine]: the activity at 0.1 µM in experiment [1] (setting [3]) came out at 78%. Moreover, the “% number of osteoclast” value was 44% and 44 ± 7.4*^#@ % in experiment [1] (setting [4]); 59% and 59 ± 14.0*^#@ % in experiment [1] (setting [5]); 49% and 49 ± 9.7*^#@ % in experiment [1] (setting [6]); 54 ± 8.7*^#@ % in experiment [1] (setting [7]); 50% and 50 ± 8.7*^#@ % in experiment [1] (setting [8]); 42% and 42 ± 7.6*^#@ % in experiment [1] (setting [9]). Moreover, the results for the “% number of osteoclast” value in experiment [1] (setting [10]) and in experiment [1] (setting [11]) were 59 ± 8.2*^#@ % and 78 ± 8.6 %, respectively.

In the case of `NCCCC(O)(P(=O)(O)O)P(=O)(O)O` [alendronic acid, reference compound], the activity at 0.2 µM in experiment [1] (Mus musculus, Osteoclast, 168 h, individual treatment of alendronic acid (0.2 μM), read-out: % number of osteoclast (vs. solvent control group)) worked out at 80%. Further, the “% number of osteoclast” value is recorded as 80 ± 5.7 % in experiment [1] (individual treatment of alendronic acid (0.2 μM)) and 76 ± 6.2 % in experiment [2] (setting [16]). In addition, the activity at 0.1 µM in experiment [2] (setting [16]) amounted to 76%.

The values are drawn from US8008329B2 (Dong Wha Pharmaceutical Co., Ltd., priority 2008, dated 2011).
